According to US11319305B2, “Pyrimidine sulfamide derivative and preparation method and medical application thereof” (SHIJIAZHUANG SAGACITY NEW DRUG DEVELOPMENT CO., LTD., priority 2017, dated 2022):
pIC50: −log10 of the molar value.

Experiments:
human ETB receptor = target: T1, human ETB receptor (Homo sapiens, UniProt P24530); assay: In vitro antagonistic effect against human ETB receptor, Ca2+ signal in transfected CHO cells; format: cell-based; conditions: response to 0.3 nM endothelin-1
T1 construct: host or cells: CHO cells
T1 sequence (P24530 27-442): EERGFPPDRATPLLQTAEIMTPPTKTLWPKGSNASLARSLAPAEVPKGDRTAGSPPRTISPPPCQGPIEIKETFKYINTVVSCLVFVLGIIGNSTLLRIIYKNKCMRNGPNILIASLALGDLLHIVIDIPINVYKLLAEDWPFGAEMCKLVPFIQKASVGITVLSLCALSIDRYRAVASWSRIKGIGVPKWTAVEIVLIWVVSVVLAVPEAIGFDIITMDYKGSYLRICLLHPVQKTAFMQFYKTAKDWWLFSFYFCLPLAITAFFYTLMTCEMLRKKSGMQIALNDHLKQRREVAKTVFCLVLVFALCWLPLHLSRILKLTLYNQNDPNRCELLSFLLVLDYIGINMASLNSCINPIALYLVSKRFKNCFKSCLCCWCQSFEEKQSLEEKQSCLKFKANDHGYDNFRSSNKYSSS
Description: Antagonist activity of the compound against human ETB receptors expressed in transfected CHO cells was evaluated by measuring the effect of the compound on the changes in the cytoplasmic Ca^2+ ion signal induced by human ETB receptor agonists. The functional activity of the ETB receptor antagonistic effect was tested in Eurofins-Cerep SA according to current standard procedures.
1. Cells were suspended in DMEM buffer (Invitrogen) and then distributed in 384-well plate (100 μL/well) at a density of 3×10^4 cells/well;
(§1) 2. Probenecid in HBSS buffer (Invitrogen) supplemented with 20 mM Hepes (Invitrogen) (pH 7.4) was mixed with fluorescent probe (Fluo4 NW, Invitrogen), the mixture was added to each wells, then balanced with cells at 37° C. for 60 minutes, and then balanced with cells at 22° C. for 15 minutes;
(§2) 3. The test plate was placed in a microplate reader (CellLux, PerkinElmer), a DMSO solution or HBSS buffer with an appropriate concentration of the test compound and the positive control was added, and 0.3 nM endothelin-1 or HBSS buffer (base control) was added after 5 minutes, and then the change in fluorescence intensity proportional to the concentration of Ca^2+ ions of […] was measured;
4. Results were shown as the percent inhibition of control response to 0.3 nM endothelin-1;
5. Standard positive control was BQ-788, several concentrations were tested in each experiments. The data was analyzed using Prism to generate a concentration-response curve, and IC50 values of the compounds were calculated.

human ETA receptor = target: T2, human ETA receptor (Homo sapiens, UniProt P25101); assay: In vitro antagonistic effect against human ETA receptor, Ca2+ signal in SK-N-MC cells; format: cell-based; conditions: for pIC50: SK-N-MC cells, response to 1 nM endothelin-1; for ETA/ETB selectivity: ratio of ETB IC50 to ETA IC50
T2 construct: endogenously expressed human ETA receptors in SK-N-MC cells; host or cells: SK-N-MC cells
T2 sequence (P25101 21-427): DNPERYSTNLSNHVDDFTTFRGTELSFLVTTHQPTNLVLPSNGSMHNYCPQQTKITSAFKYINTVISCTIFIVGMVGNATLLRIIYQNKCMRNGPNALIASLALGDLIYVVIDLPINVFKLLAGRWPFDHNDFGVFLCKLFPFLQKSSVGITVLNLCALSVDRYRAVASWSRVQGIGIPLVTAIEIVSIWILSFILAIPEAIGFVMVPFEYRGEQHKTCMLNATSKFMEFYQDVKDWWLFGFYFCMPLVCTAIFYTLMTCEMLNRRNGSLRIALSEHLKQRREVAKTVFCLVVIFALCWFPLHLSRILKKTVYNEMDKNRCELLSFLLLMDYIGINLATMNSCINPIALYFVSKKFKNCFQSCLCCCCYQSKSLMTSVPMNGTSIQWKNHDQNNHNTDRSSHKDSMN
Description: Experimental Embodiment 1: In Vitro Test of Antagonistic Effect Against Human ETA Receptor
Antagonistic activity of the compounds against endogenously expressed human ETA receptors in SK-N-MC cells was evaluated by measuring the effect of compounds on the changes in cytoplasmic Ca^2+ ion signal induced by human ETA receptor agonists using fluorescence detection methods. The functional activity of the ETA receptor antagonistic effect was tested in Eurofins-Cerep SA according to current standard procedures.
1. Cells were suspended in Dulbecco's modified Eagle medium solution (DMEM, Invitrogen) supplemented with 1% FCSd, then distributed in 384-well plate (100 μL/well) at a density of 5×10^4 cells/well;
as §1, with “Hank's balanced salt solution (HBSS, Invitrogen)” for “HBSS buffer (Invitrogen)”, “4-(2-hydroxyethyl)piperazine-1-ethanesulfonic acid (Hepes, Invitrogen)” for “Hepes (Invitrogen)”
as §2, with “1” for “0.3”
5. Standard positive control was BQ-123, several concentrations were tested in each experiments. The data was analyzed using Prism to generate a concentration-response curve, and IC50 values of the compounds were calculated.

SMILES | pIC50 (human ETB receptor) | pIC50 (human ETA receptor) | ETA/ETB selectivity (human ETA receptor)
O=S(=O)(NCC1CCCO1)Nc1ncnc(OCCOc2ncc(Br)cn2)c1-c1ccc2c(c1)OCO2 (single isomer, unassigned) [WX023] | 4.82 | 9.49 | 46800
O=S(=O)(NCC1CCCO1)Nc1ncnc(OCCOc2ncc(Br)cn2)c1-c1ccc2c(c1)OCO2 (single isomer, unassigned) [WX024] | 5.17 | 9.60 | 26800
O=S(=O)(NCC(F)(F)F)Nc1ncnc(OCCOc2ncc(Br)cn2)c1-c1ccc2c(c1)OCO2 [WX010] | 4.21 | 8.82 | 40600
O=S(=O)(Nc1ncnc(OCCOc2ncc(Br)cn2)c1-c1ccc2c(c1)OCO2)NC1CCC1 [WX011] | 4.66 | 9.00 | 22000
CCCOCCNS(=O)(=O)Nc1ncnc(OCCOc2ncc(Br)cn2)c1-c1ccc2c(c1)OCO2 [WX016] | 4.66 | 9.10 | 27800
COCCCNS(=O)(=O)Nc1ncnc(OCCOc2ncc(Br)cn2)c1-c1ccc2c(c1)OCO2 [WX017] | 4.80 | 9.35 | 35500
CCOCCCNS(=O)(=O)Nc1ncnc(OCCOc2ncc(Br)cn2)c1-c1ccc2c(c1)OCO2 [WX018] | 5.02 | 9.12 | 12600
O=S(=O)(NCC1CCOCC1)Nc1ncnc(OCCOc2ncc(Br)cn2)c1-c1ccc2c(c1)OCO2 [WX019] | < 4.52 | 9.36 | >68100
O=S(=O)(NCC1CCC1)Nc1ncnc(OCCOc2ncc(Br)cn2)c1-c1ccc2c(c1)OCO2 [WX020] | 4.77 | 9.46 | 48500
O=S(=O)(NCC1CCCO1)Nc1ncnc(OCCOc2ncc(Br)cn2)c1-c1ccc2c(c1)OCO2 (stereo not drawn) [WX021] | 4.34 | 9.47 | 135200
CS(=O)(=O)CCNS(=O)(=O)Nc1ncnc(OCCOc2ncc(Br)cn2)c1-c1ccc2c(c1)OCO2 [WX022] | 4.12 | 8.68 | 36100

Further lines, results first:

pIC50 (human ETB receptor) | pIC50 (human ETA receptor) | ETA/ETB selectivity (human ETA receptor) | SMILES
< 3.52 | 8.55 | >107000 | CCNS(=O)(=O)Nc1ncnc(OCCOc2ncc(Br)cn2)c1-c1ccc2scnc2c1 [WX002]
4.15 | 8.59 | 27300 | O=S(=O)(NCC(F)(F)F)Nc1ncnc(OCCOc2ncc(Br)cn2)c1-c1ccc2scnc2c1 [WX003]
4.68 | 8.82 | 14000 | CCCCNS(=O)(=O)Nc1ncnc(OCCOc2ncc(Br)cn2)c1-c1ccc2scnc2c1 [WX004]
< 3.52 | 8.89 | >230700 | CCCOCCNS(=O)(=O)Nc1ncnc(OCCOc2ncc(Br)cn2)c1-c1ccc2scnc2c1 [WX006]
4.46 | 8.68 | 16600 | COCCCNS(=O)(=O)Nc1ncnc(OCCOc2ncc(Br)cn2)c1-c1ccc2scnc2c1 [WX007]
3.55 | 9.37 | 651100 | CCCNS(=O)(=O)Nc1ncnc(OCCOc2ncc(Br)cn2)c1-c1ccc2c(c1)OCO2 [WX008]
4.15 | 8.64 | 30800 | CCNS(=O)(=O)Nc1ncnc(OCCOc2ncc(Br)cn2)c1-c1ccc2c(c1)OCO2 [WX009]
4.80 | 9.77 | 94100 | CCCCNS(=O)(=O)Nc1ncnc(OCCOc2ncc(Br)cn2)c1-c1ccc2c(c1)OCO2 [WX012]
4.46 | 8.89 | 26900 | O=S(=O)(NCC1CC1)Nc1ncnc(OCCOc2ncc(Br)cn2)c1-c1ccc2c(c1)OCO2 [WX014]
< 3.52 | 9.07 | >348800 | CCOCCNS(=O)(=O)Nc1ncnc(OCCOc2ncc(Br)cn2)c1-c1ccc2c(c1)OCO2 [WX015]
